Earlier results in patent US20260083754A1, “CORTICOSTEROID CONTAINING ORALLY DISINTEGRATING TABLET COMPOSITIONS FOR EOSINOPHILIC ESOPHAGITIS” (Ellodi Pharmaceuticals, L.P., priority 2013, published 2026).

How the values were obtained:
[1] = system: adolescent and adult patients with active EoE; conditions: 15-day course, 1 mg twice daily

| Structure (SMILES) | patients who achieved histologic remission (EoE patients; FP-treated patients, placebo 9%, P=0.047) | esophageal eosinophil levels (EoE patients; more pronounced effect in non-allergic individuals) | tolerability [1] |
| --- | --- | --- | --- |
| CCC(=O)O[C@]1(C(=O)SCF)[C@H](C)C[C@H]2[C@@H]3C[C@H](F)C4=CC(=O)C=C[C@]4(C)[C@@]3(F)[C@@H](O)C[C@@]21C [FP, fluticasone propionate] | 50% | decreased | – |
| CCCC1O[C@@H]2C[C@H]3[C@@H]4CCC5=CC(=O)C=C[C@]5(C)[C@H]4[C@@H](O)C[C@]3(C)[C@]2(C(=O)CO)O1 (stereo partly drawn) [budesonide] | – | – | well tolerated |
